Measured values: patent EP0500802B1, “LIPOSOMAL COMPOSITIONS” (priority 1989, dated 1991)

Experiment: Ocular biodistribution of 14C-labelled cromolyn free drug after topical ocular instillation (liquid scintillation counting of tissues)
Type: in vivo, New Zealand white rabbits
Conditions: for TISSUE CONCENTRATION WEIGHTED MEAN: Examples 1-3
Method: A. Preparation of test article. The sodium cromoglycate free drug test article used in the ocular biodistribution studies (Examples 1, 2 and 3) was prepared according to the following formula: […]
B. The [propane-2-¹⁴C]cromolyn sodium used in the biodistribution studies was prepared as follows: 1,3-dichloro[2-¹⁴C]propan-2-ol was reacted with 2,6-dihydroxyacetophenone to give 1,3-bis (2-acetyl-3-hydroxy phenoxy)-2-hydroxy[2-¹⁴C]propane. This was treated with base and diethyl oxalate followed by acid catalysed cyclisation to give diethyl [propane-2-¹⁴C]cromolyn. Hydrolysis with sodium hydroxide gave the final product which was purified by crystallisation from water acetone. C. Specification and Handling of Experimental Animals and Tissues. • 1. Description of Experimental Animals: Female, New Zealand white rabbits (Hare Marland) weighing 2-3 kg were used in these studies. Upon receipt each animal was assigned an identification number and examined for gross signs of general health. The animals were individually housed in standard rabbit cages and given access to food and water ad libitum. Animals were received approximately one week before initiation of the study. Prior to the study the animals were randomly assigned to treatment groups using either a random number table or generator. Immediately before treatment the ocular tissues were examined for signs of irritation. If irritation was observed, either another animal was substituted or the condition noted. Food was removed at the time of treatment Water was available ad libitum throughout. • 2. Topical Ocular Instillation of Test Article: Animals were treated unilaterally by topical ocular instillation using a positive displacement pipet. The eyelids were gently retracted and the dose applied onto the cornea taking care to avoid touching the tissue with the pipet tip. The animal was positioned such that the dose flowed into the lower cul-de-sac. After treatment the animals were returned to their cages. • 3. Collection of Plasma Sample: Immediately prior to euthanasia, animals were placed in a standard rabbit restrainer. A small amount of xylene was applied to an eartip to enhance blood flow. The lateral ear vein was lanced and approximately 500 ul of blood collected in a Microtainer Brand Tube with EDTA (Becton Dickinson). The tubes were mixed by inversion and centrifuged in a microfuge for 10 minutes. A 200 ul aliquot of plasma was transferred to a scintillation vial for further processing of the sample. • 4. Euthanasia: Animals were euthanized by intravenous injection of a lethal dose of T61 Euthanasia Fluid (Hoechst-Roussel) into a lateral ear vein. Death was verified by absence of respiration, heart beat, and ocular reflexes. • 5. Dissection of Ocular Tissues. • a. Removal of Aqueous Humor: Aqueous humor was removed using a 1 ml disposable, plastic syringe equipped with a 5/8"-27g needle. The needle was inserted into the anterior chamber at the limbus. The fluid was gently withdrawn and transferred to a preweighed scintillation vial. • b. Removal of Globe, Conjunctiva, and Nictitating Membrane: The eyelids were retracted using 6" curbed hemostats. Incisions were made at the corners of the eye to facilitate dissection of the conjunctiva. The palpebral conjunctiva and nictitating membrane were dissected free of the eyelids, muscle, and connective tissue using Wilmer-Converse conjunctiva scissors. The conjunctiva and nictitating membrane were grasped with straight Kirby tissue forceps to form a sack around the globe. The sack and its contents were removed from the socket as a unit using heavy curved nucleation scissors. Excess blood was removed from the outside of the sac by gentle blotting with gauze pads. • c. Dissection of Conjunctiva, and Nictitating Membrane: The nictitating membrane was grasped with straight Kirby tissue forceps. The conjunctiva was cut with heavy curved eye scissors along one edge of the nictitating membrane. […]

O=C(O)c1cc(=O)c2c(OCC(O)COc3cccc4oc(C(=O)O)cc(=O)c34)cccc2o1 [CROMOLYN FREE DRUG, 5,5' -[(2-Hydroxy-1,3-propanediyl)bis-(oxy)]bis[4-oxo-4H-1-benzopyran-2-carboxylic acid]]
TISSUE CONCENTRATION MEAN (AQUEOUS HUMOR, Rx eye, 2 HR, EXAMPLE 1): 70 ng Cromolyn/g or ml Tissue | TISSUE CONCENTRATION MEAN (AQUEOUS HUMOR, Rx eye, 2 HR, EXAMPLE 2): 36 ng Cromolyn/g or ml Tissue | TISSUE CONCENTRATION MEAN (AQUEOUS HUMOR, Rx eye, 2 HR, EXAMPLE 3): 129 ng Cromolyn/g or ml Tissue | TISSUE CONCENTRATION WEIGHTED MEAN (AQUEOUS HUMOR, Rx eye, 2 HR): 39 ng Cromolyn/g or ml Tissue | TISSUE CONCENTRATION MEAN (AQUEOUS HUMOR, Rx eye, 4 HR, EXAMPLE 1): 37 ng Cromolyn/g or ml Tissue | TISSUE CONCENTRATION MEAN (AQUEOUS HUMOR, Rx eye, 4 HR, EXAMPLE 2): 29 ng Cromolyn/g or ml Tissue | TISSUE CONCENTRATION MEAN (AQUEOUS HUMOR, Rx eye, 4 HR, EXAMPLE 3): 68 ng Cromolyn/g or ml Tissue | TISSUE CONCENTRATION WEIGHTED MEAN (AQUEOUS HUMOR, Rx eye, 4 HR): 35 ng Cromolyn/g or ml Tissue | TISSUE CONCENTRATION MEAN (AQUEOUS HUMOR, Rx eye, 8 HR, EXAMPLE 1): 16 ng Cromolyn/g or ml Tissue | TISSUE CONCENTRATION MEAN (AQUEOUS HUMOR, Rx eye, 8 HR, EXAMPLE 2): 13 ng Cromolyn/g or ml Tissue | TISSUE CONCENTRATION MEAN (AQUEOUS HUMOR, Rx eye, 8 HR, EXAMPLE 3): 10 ng Cromolyn/g or ml Tissue | TISSUE CONCENTRATION WEIGHTED MEAN (AQUEOUS HUMOR, Rx eye, 8 HR): 13 ng Cromolyn/g or ml Tissue | TISSUE CONCENTRATION MEAN (CONJUNCTIVA, Rx eye, 2 HR, EXAMPLE 1): 3501 ng Cromolyn/g or ml Tissue | TISSUE CONCENTRATION MEAN (CONJUNCTIVA, Rx eye, 2 HR, EXAMPLE 2): 3316 ng Cromolyn/g or ml Tissue | TISSUE CONCENTRATION MEAN (CONJUNCTIVA, Rx eye, 2 HR, EXAMPLE 3): 2332 ng Cromolyn/g or ml Tissue | TISSUE CONCENTRATION WEIGHTED MEAN (CONJUNCTIVA, Rx eye, 2 HR): 2887 ng Cromolyn/g or ml Tissue | TISSUE CONCENTRATION MEAN (CONJUNCTIVA, Rx eye, 4 HR, EXAMPLE 1): 742 ng Cromolyn/g or ml Tissue | TISSUE CONCENTRATION MEAN (CONJUNCTIVA, Rx eye, 4 HR, EXAMPLE 2): 683 ng Cromolyn/g or ml Tissue | TISSUE CONCENTRATION MEAN (CONJUNCTIVA, Rx eye, 4 HR, EXAMPLE 3): 772 ng Cromolyn/g or ml Tissue | TISSUE CONCENTRATION WEIGHTED MEAN (CONJUNCTIVA, Rx eye, 4 HR): 716 ng Cromolyn/g or ml Tissue | TISSUE CONCENTRATION MEAN (CONJUNCTIVA, Rx eye, 8 HR, EXAMPLE 1): 687 ng Cromolyn/g or ml Tissue | TISSUE CONCENTRATION MEAN (CONJUNCTIVA, Rx eye, 8 HR, EXAMPLE 2): 578 ng Cromolyn/g or ml Tissue | TISSUE CONCENTRATION MEAN (CONJUNCTIVA, Rx eye, 8 HR, EXAMPLE 3): 614 ng Cromolyn/g or ml Tissue | TISSUE CONCENTRATION WEIGHTED MEAN (CONJUNCTIVA, Rx eye, 8 HR): 607 ng Cromolyn/g or ml Tissue | TISSUE CONCENTRATION MEAN (CORNES, Rx eye, 2 HR, EXAMPLE 1): 1005 ng Cromolyn/g or ml Tissue | TISSUE CONCENTRATION MEAN (CORNES, Rx eye, 2 HR, EXAMPLE 2): 478 ng Cromolyn/g or ml Tissue | TISSUE CONCENTRATION MEAN (CORNES, Rx eye, 2 HR, EXAMPLE 3): 683 ng Cromolyn/g or ml Tissue | TISSUE CONCENTRATION WEIGHTED MEAN (CORNES, Rx eye, 2 HR): 519 ng Cromolyn/g or ml Tissue | TISSUE CONCENTRATION MEAN (CORNES, Rx eye, 4 HR, EXAMPLE 1): 487 ng Cromolyn/g or ml Tissue | TISSUE CONCENTRATION MEAN (CORNES, Rx eye, 4 HR, EXAMPLE 2): 298 ng Cromolyn/g or ml Tissue | TISSUE CONCENTRATION MEAN (CORNES, Rx eye, 4 HR, EXAMPLE 3): 381 ng Cromolyn/g or ml Tissue | TISSUE CONCENTRATION WEIGHTED MEAN (CORNES, Rx eye, 4 HR): 337 ng Cromolyn/g or ml Tissue | TISSUE CONCENTRATION MEAN (CORNES, Rx eye, 8 HR, EXAMPLE 1): 160 ng Cromolyn/g or ml Tissue | TISSUE CONCENTRATION MEAN (CORNES, Rx eye, 8 HR, EXAMPLE 2): 165 ng Cromolyn/g or ml Tissue | TISSUE CONCENTRATION MEAN (CORNES, Rx eye, 8 HR, EXAMPLE 3): 127 ng Cromolyn/g or ml Tissue | TISSUE CONCENTRATION WEIGHTED MEAN (CORNES, Rx eye, 8 HR): 162 ng Cromolyn/g or ml Tissue | TISSUE CONCENTRATION MEAN (IRIS-CILIARY BODY, Rx eye, 2 HR, EXAMPLE 3): 56 ng Cromolyn/g or ml Tissue | TISSUE CONCENTRATION MEAN (IRIS-CILIARY BODY, Rx eye, 4 HR, EXAMPLE 3): 29 ng Cromolyn/g or ml Tissue | TISSUE CONCENTRATION MEAN (NICTITATING MEMBRANE, Rx eye, 2 HR, EXAMPLE 1): 2136 ng Cromolyn/g or ml Tissue | TISSUE CONCENTRATION MEAN (NICTITATING MEMBRANE, Rx eye, 2 HR, EXAMPLE 2): 2438 ng Cromolyn/g or ml Tissue | TISSUE CONCENTRATION MEAN (NICTITATING MEMBRANE, Rx eye, 2 HR, EXAMPLE 3): 2618 ng Cromolyn/g or ml Tissue | TISSUE CONCENTRATION WEIGHTED MEAN (NICTITATING MEMBRANE, Rx eye, 2 HR): 2319 ng Cromolyn/g or ml Tissue | TISSUE CONCENTRATION MEAN (NICTITATING MEMBRANE, Rx eye, 4 HR, EXAMPLE 1): 480 ng Cromolyn/g or ml Tissue | TISSUE CONCENTRATION MEAN (NICTITATING MEMBRANE, Rx eye, 4 HR, EXAMPLE 2): 484 ng Cromolyn/g or ml Tissue | TISSUE CONCENTRATION MEAN (NICTITATING MEMBRANE, Rx eye, 4 HR, EXAMPLE 3): 576 ng Cromolyn/g or ml Tissue | TISSUE CONCENTRATION WEIGHTED MEAN (NICTITATING MEMBRANE, Rx eye, 4 HR): 494 ng Cromolyn/g or ml Tissue | TISSUE CONCENTRATION MEAN (NICTITATING MEMBRANE, Rx eye, 8 HR, EXAMPLE 1): 348 ng Cromolyn/g or ml Tissue | TISSUE CONCENTRATION MEAN (NICTITATING MEMBRANE, Rx eye, 8 HR, EXAMPLE 2): 350 ng Cromolyn/g or ml Tissue | TISSUE CONCENTRATION MEAN (NICTITATING MEMBRANE, Rx eye, 8 HR, EXAMPLE 3): 462 ng Cromolyn/g or ml Tissue | TISSUE CONCENTRATION WEIGHTED MEAN (NICTITATING MEMBRANE, Rx eye, 8 HR): 383 ng Cromolyn/g or ml Tissue | TISSUE CONCENTRATION MEAN (PLASMA, 2 HR, EXAMPLE 3): 1 ng Cromolyn/g or ml Tissue | Cromolyn levels in the aqueous humor of the untreated eye (any time point (2, 4, 8 hours), Example 1 results text): no detectable
